Here are results for five molecules from article PMC11350758, “Development of Xanthoangelol-Derived Compounds with Membrane-Disrupting Effects against Gram-Positive Bacteria” (Antibiotics, 2024).

Converted amounts (≈) assume the structure as drawn. Read-outs that look alike come from different tables or passages of the source.

Test [1] deals with S. aureus ATCC43300 biofilm formation. Particulars: 4 μg/mL. The protocol:
Bacterial biofilms created by the aggregation of bacteria is considered as one of the main reasons for the development of drug resistance. […] Subsequently, we further assessed the efficiency of 9h to eradicate the preformed biofilm. Matured S. aureus biofilm (grown for 24 h) was treated with compound 9h, and the rate of biofilm disruption was then assessed by the crystal violet staining assay.
Biofilm inhibition assay: S. aureus ATCC43300 was cultured (37 °C, 200 rpm) in MHB broth for 5 h and diluted to 1 × 10^6 CFU/mL. […] The planktonic supernatant cells were discarded and washed with PBS three times. Then, methanol (150 µL) was added to each well for 30 min. After discarding methanol, 0.1% crystal violet solution (150 µL) was added, and biofilms were stained for 15 min. Next, crystal violet solution was removed and washed with PBS three times. Finally, ethanol (150 µL) was pipetted into the wells, and the OD values were measured at 575 nm. The biofilm inhibition (%) = (ODcompound − ODblank)/(ODpositive control − ODblank) × 100%.

Test [2] concerns Acinetobacter baumannii ATCC19606. Kind of test: MIC, broth microdilution. It is filed as cell-based. Particulars: Acinetobacter baumannii, ATCC19606, read-out: MIC A. b. 19606. The protocol:
(§1) All target derivatives were assessed for their in vitro antibacterial activities using a broth microdilution assay to test their minimum inhibitory concentrations (MICs) against six Gram-positive strains (S. aureus ATCC31007, S. aureus ATCC25923, S. aureus ATCC43300, E. faecalis ATCC29212, B. subtilis ATCC9372, and S. epidermidis ATCC12228) and four Gram-negative strains (A. baumannii ATCC19606, K. pneumonia ATCC10031, E. coli ATCC25922, and P. aeruginosa ATCC27853). These compounds were also evaluated for their hemolytic activities and membrane selectivity by determining their HC50 (the concentration required to lyse 50% of red blood cells) and SI (HC50/MICs) values, respectively, and vancomycin was used as the positive drug.
(§2) MICs of the derivatives were determined by the micro broth dilution method according to the American Clinical and Laboratory Standards Institute (CLSI) standards. Briefly, 2-fold serial dilutions of target compounds were prepared in 96-well plates containing TSB broth. An equal volume of bacterial suspension (10^6 CFU/mL) was then pipetted into each well, and the mixture was incubated at 37 °C for 24 h. […] All biological experiments were repeated three times.

Test [3] relates to Bacillus subtilis ATCC9372, penicillin-susceptible strain. Kind of test: MIC, broth microdilution. Type of test: cell-based. Particulars: Bacillus subtilis, ATCC9372, read-out: MIC B. s. 9372. Here is the method: as §1, §2
In test [4] the test system is Enterococcus faecalis ATCC29212, vancomycin-susceptible strain. Kind of test: MIC, broth microdilution. Type of test: cell-based. Particulars: Enterococcus faecalis, ATCC29212, read-out: MIC E. f. 29212. Here is the method: as §1, §2
In test [5] the test system is Escherichia coli ATCC25922, penicillin-susceptible strain. The test can be described thus: MIC, broth microdilution. Type of test: cell-based. Particulars: Escherichia coli, ATCC25922, read-out: MIC E. c. 25922. The protocol: as §1, §2
Test [6] concerns Klebsiella pneumonia ATCC10031. The test can be described thus: MIC, broth microdilution. Type of test: cell-based. Particulars: Klebsiella pneumoniae, ATCC10031, read-out: MIC K. p. 10031. The protocol: as §1, §2
In test [7] the test system is Pseudomonas aeruginosa ATCC27853. Kind of test: MIC, broth microdilution. Type of test: cell-based. Particulars: Pseudomonas aeruginosa, ATCC27853, read-out: MIC P. a. 27853. The protocol: as §1, §2
For test [8], the system named is Staphylococcus aureus ATCC25923, erythromycin-susceptible strain. The test can be described thus: MIC, broth microdilution. Particulars: Staphylococcus aureus, ATCC25923, read-out: MIC S. a. 25923. Type of test: cell-based. Here is the method: as §1, §2
Test [9] has as its system Staphylococcus aureus ATCC31007, penicillin-resistant strain. The test can be described thus: MIC, broth microdilution. It is filed as cell-based. Particulars: Staphylococcus aureus, ATCC31007, read-out: MIC S. a. 31007. Here is the method:
as §1, §2

In test [10] the test system is Staphylococcus epidermidis ATCC12228, erythromycin-susceptible strain. Kind of test: MIC, broth microdilution. Type of test: cell-based. Particulars: Staphylococcus epidermidis, ATCC12228, read-out: MIC S. e. 12228. Here is the method: as §1, §2
Test [11] relates to Staphylococcus aureus ATCC43300, methicillin-resistant strain. The test can be described thus: microbe, parasite or virus in culture. Particulars: for MIC: ATCC 43300 / MRSA, read-out: MIC S. a 43300. It is filed as cell-based. The protocol:
as §1, §2

The test system of test [12] is Enterococcus faecalis ATCC51299, vancomycin-resistant strain. The test can be described thus: MIC, broth microdilution. It is filed as cell-based. Particulars: Enterococcus faecalis, ATCC51299, read-out: MIC E. f. 51299. The protocol: as §2
In test [13] the test system is Enterococcus faecium ATCC51559, vancomycin-resistant strain. Kind of test: MIC, broth microdilution. Particulars: Enterococcus faecium, ATCC51559, read-out: MIC E. f. 51559. Type of test: cell-based. Here is the method: as §2
Test [14] has as its system S. aureus ATCC4330. The test can be described thus: microbe, parasite or virus in culture. Type of test: cell-based. Particulars: control compounds of the ROS assay. The protocol: Due to the presence of various biological enzymes in plasma, natural AMPs are susceptible to enzymatic degradation upon entering the bloods, leading to a loss of their antimicrobial activity. To evaluate the plasma stability of active compound 9h, we conducted a stability assay by determining their MBC (minimum bactericidal concentration) values in plasma and different blood components. […] The observed initial increase in the MBC value, followed by remaining unchanged, could potentially be attributed to the initial binding of compound 9h with plasma proteins, causing a reduction in its activity. Once this binding became saturated, the bactericidal activity of the compound remained stable, further indicating the good stability of compound 9h in plasma.
MBCs of the compounds were tested. Furthermore, MBCs of compounds in 50% plasma, 50% serum, and 50% blood suspension were tested. The MBC value is defined as the concentration at which the colony count is less than 5 after 18 h of incubation at 37 °C. All biological experiments were repeated three times.

Test [15] deals with S. aureus ATCC43300. Kind of test: ROS assay (DCFH-DA). It is filed as cell-based. Particulars: control compounds. Here is the method: It is known that the disruption of bacterial cell membranes often causes the production of ROS in bacterial cells. The fluorescent probe DCFH-DA was used to monitor the level of intracellular ROS produced by S. aureus ATCC43300. DCFH-DA is initially non-fluorescent; however, it undergoes hydrolysis to DCFH upon entry into the cell. Subsequently, DCFH is converted to the fluorescent compound DCF when ROS are produced in the cells. […] The fluorescence intensity of 9h was about 8-fold higher than the PBS-treated group when the concentration of 9h increased 16 μg/mL.
Mid-log S. aureus ATCC43300 was collected and resuspended in PBS. Bacteria suspension (1.0 × 10^8 CFU/mL) was placed into a 96-well plate, and an equal volume of DCF-DA (10.0 μM) was mixed and incubated at 37 °C for 30 min. After incubation, the suspension was centrifuged (3500 rpm, 4 min), and the supernatant was removed and resuspended in PBS. […] The fluorescence intensity of each well was recorded by a microplate reader (Ex = 488 nm and Em = 530 nm). All biological experiments were repeated three times.

Test [16] deals with S. aureus ATCC43300. The test can be described thus: DNA leakage study. Type of test: cell-based. Particulars: control compound. Here is the method: The destruction of bacterial cell membranes usually causes the leakage of macromolecules, including DNA and proteins. To investigate the effect of the compound 9h on the leakage of cytoplasmic contents, we performed DNA and protein leakage assays against S. aureus ATCC43300. The degree of damage to the bacterial cell membrane could be reflected by the concentrations of DNA and protein. The non-membrane-targeted antibiotic ciprofloxacin, membrane-targeted peptide melittin, and PBS were used as controls. […] A similar result were also observed in the leakage of protein with S. aureus (Figure 8C).
Mid-log S. aureus ATCC43300 was collected and resuspended in PBS (1.0 × 10^8 CFU/mL). […] The concentration of the protein was determined according to the method of the BCA assay kit (Thermo Fisher Scientific, Waltham, MA, USA), and the concentration of DNA in the supernatant was tested by a micro-spectrophotometer. All biological experiments were repeated three times.

Test [17] concerns S. aureus ATCC43300. The test can be described thus: Resistance development assay (serial passage). Particulars: at the 19th passage. It is filed as cell-based. The protocol: The rapid increase in bacterial resistance to antibiotics is a major challenge in clinical treatment, and in order to assess the drug resistance development for compound 9h, we performed a drug resistance assay against S. aureus ATCC43300. Norfloxacin was selected as the positive control. The S. aureus cells were incubated with sub-MIC (1/2 MIC) concentration of compound 9h and were serially passaged for a duration of 20 days.
Resistance was defined as a more than 4-fold increase in the tested compound in MIC when compared to the beginning value. Briefly, S. aureus ATCC43300 was cultured (37 °C, 200 rpm) in MHB broth for 5 h and diluted to 1 × 10^6 CFU/mL. Then, the bacteria were cultured with compound 9h at a sub-MIC concentration (1/2 MIC) for 18 h. The MICs were determined according to this method for consecutive 20 days. All biological experiments were repeated three times.

The mark [18] stands for this setting: Staphylococcus aureus ATCC43300 (MRSA).

Consider `CC[C@H](C)[C@H](NC(=O)[C@H](CCCCN)NC(=O)[C@H](CCC(=O)O)NC(=O)[C@H](CCCCN)NC(=O)[C@H](CO)NC(=O)[C@H](CCCCN)NC(=O)[C@H](CCCNC(=N)N)NC(=O)[C@H](Cc1ccccc1)NC(=O)[C@H](Cc1ccccc1)NC(=O)[C@H](CC(=O)O)NC(=O)CNC(=O)[C@H](CC(C)C)NC(=O)[C@@H](N)CC(C)C)C(=O)NCC(=O)N[C@@H](CCCCN)C(=O)N[C@@H](CCC(=O)O)C(=O)N[C@@H](Cc1ccccc1)C(=O)N[C@@H](CCCCN)C(=O)N[C@@H](CCCNC(=N)N)C(=O)N[C@H](C(=O)N[C@H](C(=O)N[C@@H](CCC(N)=O)C(=O)N[C@@H](CCCNC(=N)N)C(=O)N[C@H](C(=O)N[C@@H](CCCCN)C(=O)N[C@@H](CC(=O)O)C(=O)N[C@@H](Cc1ccccc1)C(=O)N[C@@H](CC(C)C)C(=O)N[C@@H](CCCNC(=N)N)C(=O)N[C@@H](CC(N)=O)C(=O)N[C@@H](CC(C)C)C(=O)N[C@H](C(=O)N1CCC[C@H]1C(=O)N[C@@H](CCCNC(=N)N)C(=O)N[C@H](C(=O)N[C@@H](CCC(=O)O)C(=O)N[C@@H](CO)C(=O)O)[C@@H](C)O)C(C)C)[C@@H](C)CC)C(C)C)[C@@H](C)CC` [LL-37, reference compound], for which the “inhibition of S. aureus biofilm formation” value in [1] came to 55.41%.
As to `CN[C@H](CC(C)C)C(=O)N[C@H]1C(=O)N[C@@H](CC(N)=O)C(=O)N[C@H]2C(=O)N[C@H]3C(=O)N[C@H](C(=O)N[C@H](C(=O)O)c4cc(O)cc(O)c4-c4cc3ccc4O)[C@H](O)c3ccc(c(Cl)c3)Oc3cc2cc(c3O[C@@H]2O[C@H](CO)[C@@H](O)[C@H](O)[C@H]2O[C@H]2C[C@](C)(N)[C@H](O)[C@H](C)O2)Oc2ccc(cc2Cl)[C@H]1O` [Van, vancomycin, reference compound], the MIC in test [2] was 16 µg/mL (≈ 11 µM); in [3], 0.5 µg/mL (≈ 0.345 µM); in test [4] it was 2 µg/mL (≈ 1.38 µM); in [5] it was 128 µg/mL (≈ 88.3 µM); in test [6], 128 µg/mL (≈ 88.3 µM); in test [7], above 128 µg/mL. Besides, the MIC stood at 1 µg/mL (≈ 0.69 µM) in test [8]; 1 µg/mL (≈ 0.69 µM) in [9]; 2 µg/mL (≈ 1.38 µM) in test [10]; 2 µg/mL (≈ 1.38 µM) in [11] (Staphylococcus aureus); 128 µg/mL (≈ 88.3 µM) in [12]; 128 µg/mL (≈ 88.3 µM) in test [13].
In the case of `O=C(O)c1cn(C2CC2)c2cc(N3CCNCC3)c(F)cc2c1=O` [ciprofloxacin, reference compound], the MIC in test [11] (setting [18]) came out at 0.25 µg/mL (≈ 0.754 µM). The MBC in test [14] (Staphylococcus aureus, ATCC 4330 / ATCC 43300, against S. aureus ATCC43300, read-out: MBC) amounted to 2 µg/mL (≈ 6.04 µM). Further, in test [15], the “effect on ROS fluorescence intensity” value was “little change in fluorescence intensity”. Besides, the “effect on DNA concentration” value in [16] is “changed little”.
For `CC[C@H](C)[C@H](NC(=O)CN)C(=O)NCC(=O)N[C@@H](C)C(=O)N[C@H](C(=O)N[C@@H](CC(C)C)C(=O)N[C@@H](CCCCN)C(=O)N[C@H](C(=O)N[C@@H](CC(C)C)C(=O)N[C@H](C(=O)N[C@H](C(=O)NCC(=O)N[C@@H](CC(C)C)C(=O)N1CCC[C@H]1C(=O)N[C@@H](C)C(=O)N[C@@H](CC(C)C)C(=O)N[C@H](C(=O)N[C@@H](CO)C(=O)N[C@@H](Cc1c[nH]c2ccccc12)C(=O)N[C@H](C(=O)N[C@@H](CCCCN)C(=O)N[C@@H](CCCNC(=N)N)C(=O)N[C@@H](CCCCN)C(=O)N[C@@H](CCCNC(=N)N)C(=O)N[C@@H](CCC(N)=O)C(=O)N[C@@H](CCC(N)=O)C(N)=O)[C@@H](C)CC)[C@@H](C)CC)[C@@H](C)O)[C@@H](C)O)C(C)C)C(C)C` [melittin, reference compound], in [11] (setting [18]), the “MIC S. a 43300” value was determined as 8 µg/mL (≈ 2.81 µM). Besides, the MBC in test [14] (against S. aureus ATCC43300) turned out to be 32 µg/mL (≈ 11.2 µM). The “effect on ROS fluorescence intensity” value in test [15] is on record as “dose-dependently increase the fluorescence intensity”.
With `CCn1cc(C(=O)O)c(=O)c2cc(F)c(N3CCNCC3)cc21` [norfloxacin, reference compound], in [17], the “fold increase in MIC” value is given as 512 fold.
